# In patent US20230277483A1, “COMPOSITIONS AND METHODS TO TREAT INFLAMMATION” (University of Iowa Research Foundation, priority 2022, published 2023):
# What was measured:
# [1] = tested on: primary human gingival fibroblasts (HGF); experiment: MTT toxicity assay; assay type: cell-based; conditions: HCA from 0.1 to 50 μM; 24 and 48 hours
# [2] = tested on: Human MDM; experiment: Anti-inflammatory miR expression after Pg-LPS challenge; assay type: cell-based
# Experimental: FIGS. 11A-11B. Sg metabolites upregulate anti-inflammatory miRs in human macrophages and HGF. A-B: Relative transcript changes of miR-200c, 146a, and 21 in HGF (A) and human MDM (B) treated with AICAR, MA, HCA, and HPLA 24 hours after Pg-LPS challenge; performed in duplicate.
# Human MDM was cultured in a 24-well plate and treated with HCA at different concentrations and Pg-LPS at 100 ng/mi for 24 hrs. […] (All data are presented as means±SEM. *: p<0.05 vs untreated, ANOVA).
# [3] = tested on: DIO-mice (C57BL/6J on 60% kCal high-fat diet); experiment: Diet-induced obesity (DIO) mouse model, IP HCA; assay type: in vivo
# Experimental: Animal care and experimental procedures were performed with approval from the University of Iowa's Institutional Animal Care and Use Committee. Animals received humane care in compliance with the Guide for the Care and Use of Laboratory Animals (National Academies Press, 2011) and with the Principles of Laboratory Animal Care formulated by the National Society for Medical Research. C57BL/6J mice (The Jackson Laboratory, 000664) were kept on a 12-hour light/dark cycle. Mice used to generate the DIO model were placed on a 60% kCal high-fat diet (HFD, Research Diets, D12492) immediately after weaning (i.e., at 3 weeks of age). After 16 weeks, lean and DIO-mice were intraperitoneally (IP) injected with 0.5 uM HCA or PBS control every other day for three weeks. Body weight was measured weekly. All tissues were harvested, frozen in liquid nitrogen, and kept at −80° C. until processed.
# Total RNA was isolated using TRIzol reagent (Invitrogen, 15-596-018) and reverse transcribed into cDNA using the iScript cDNA synthesis kit (Bio-Rad, 1708890). Quantitative real-time RT-PCR analysis was performed using SYBR Green (Invitrogen, KCQS00).
# Proteins were extracted from cells or tissues and subjected to SDS-polyacrylamide gel electrophoresis, as previously described (Yang et al., 2015). Membranes were incubated with anti-p-AKT (Ser473, Cell Signaling, 9271); anti-AKT1 (H-136, Santa Cruz, sc-8312) or anti-ACTB (H-300, Santa Cruz, sc-10731) at 1:1000 and then incubated with the appropriate secondary antibody conjugated with horseradish peroxidase (1:5000, Santa Cruz, sc-2005 or 1:5000, Cell Signaling Technology, 7074S). Signal was detected using the ChemiDoc Touch Imaging System (Bio-Rad), and densitometric analyses of western blot images were performed using Image Lab software (Bio-Rad).
# For immunohistochemistry, tissues were fixed with 4% PFA and sectioned at 5 μm thick, followed by deparaffinization and rehydration processes. Tissue sections were stained using H&E. The images were observed under a Nikon microscope (10×).
# Blood samples were centrifuged (4° C., 5000 g, 30 min) to obtain serum. Ten microliters of serum per sample were required for each index analysis. Serum alanine aminotransferase (ALT) and aspartate aminotransferase (AST) were measured by commercial kits. Serum IL-1β, IL-6 and free fatty acid (FFA) content were measured by ELISA (Il-1beta, Biolegend, Cat No. 432604; Il6) or a FFA fluorometric kit (Cayman Chemical, No. 700310), respectively, and then normalized to total protein (BCA).
# Whole-body energy expenditure and body composition: Respiratory exchange ratio (RER) and locomotor activity were monitored using a Comprehensive Lab Animal Monitoring System (CLAMS, Columbus Instruments) at the Fraternal Order of Eagles Metabolic Phenotypic Core. Body composition was measured by using Bruker Minispecs (LF50).
# Animals were fasted for 6 hours prior to ITT. Insulin tolerance was tested by measuring glucose concentration at different time points after intraperitoneal (IP) insulin injection (0.5 U/kg body weight; Humulin R) (Qian et al., 2018).
smiles,measurement,setting,value
"O=C(O)CCCCCO [HCA, 6-hydroxycaproic acid]",toxicity (MTT assay),[1],No toxicity
same,"anti-inflammatory miRs (miR-200c, 146a, and 21)",[2]; 24 hours after Pg-LPS challenge,upregulate
same,miR-200c expression,"[2]; HCA at 10 μM, Pg-LPS at 100 ng/ml for 24 hrs",significantly upregulated
same,liver expression of Atg1 and Cd36,[3]; HCA vs HFD alone,increased expression
same,liver expression of Hsl,[3]; HCA vs HFD alone,significantly reduced
same,Serum free fatty acid (FFA) content,[3]; HCA vs HFD controls,reduced circulating levels
same,fasting glucose,"[3]; HFD-fed, HCA-treated",HFD-mediated effects were reduced
same,pAKT in eWAT (insulin signaling),"[3]; HFD-fed, HCA-treated",increased pAKT
same,insulin tolerance (ITT),"[3]; HFD-fed, HCA-treated, insulin 0.5 U/kg IP",HFD-mediated effects were reduced
same,lean mass,"[3]; HFD, 0.5 uM HCA IP every other day for three weeks",increased
same,BW gain,"[3]; HFD, 0.5 uM HCA IP every other day for three weeks, vs HFD group",significantly reduced
same,eWAT RNA-seq: chemokine signaling and leukocyte migration,"[3]; HFD, HCA",downregulated
same,"eWAT RNA-seq: fatty acid metabolism, oxidation and absorption, PPAR gamma and AMPK signaling","[3]; HFD, HCA",significantly increased
same,liver Il1b transcript levels,"[3]; HFD, HCA",significantly reduced
same,"serum IL-6, IL-1β, and leptin","[3]; HFD, HCA",reduced
same,eWAT Adipoq and Ppargamma levels,"[3]; HFD, HCA-treated",levels increased
same,"eWAT mRNA expression of Il6, Nos2 and Lep","[3]; HFD, HCA-treated",significantly reduced
same,serum ALT levels,"[3]; HFD, HCA-treated",reduced
same,"morphology of liver, iWAT and eWAT (H&E)","[3]; HFD, HCA-treated vs HFD alone",showed improvement
same,activity (locomotor),"[3]; HFD, HCA-treated, CLAMS",increased activity
same,respiratory exchange ratio (RER),"[3]; HFD, HCA-treated, CLAMS",shift in respiratory exchange ratio (RER) towards increased carbohydrate metabolism
same,eWAT Cd36 and Gpr81,[3]; compared to HFD controls,induced
same,"GPR137B, GPR176, GPR65, GPR85, and FABP7 in WAT (mRNA-seq)",[3]; obese mice treated with HCA,upregulation
same,PPARγ in white adipose tissues (WAT),"[3]; obese mice, systemic administration of HCA",upregulation
